Laboratory results: US10273313B2, “Multimeric mannosides, a process for preparing the same and their uses as a drug” (CENTRE NATIONAL DE LA RECHERCHE SCIENTIFIQUE, priority 2012, dated 2019)
Converted amounts (≈) assume the structure as drawn. Read-outs that look alike come from different tables or passages of the source.

Experiments:
bladder cell line 5637 = assay: Anti-adhesives for bacterial bladder cell binding; assay type: cell-based; conditions: ten-fold dilution series
Procedure: The anti-adhesive capacities of the HM-derivatized cyclodextrins 1-4 were tested in vitro on the bladder cell line 5637, in a procedure analogous as previously described (Wellens, A. et al., PLoS ONE 3: e2040 (2008)). The CD conjugates 1-4 were diluted in a ten-fold series. The minimum inhibitory concentrations (MIC) indicate the concentrations of sugars at which we see some inhibition of binding of FimH to the bladder cells, they do however not indicate complete inhibition. MIC values for the CD-conjugates 1-4 followed a similar trend as the inhibitory concentrations recorded in HIA.
The anti-adhesive capacities of the n-heptyl α-D-mannoside-derivatized cyclodextrins 1-4 were tested in vitro on the bladder cell line 5637, in a procedure analogous to as described in (Wellens, A. et al., PLoS ONE 3: e2040 (2008)). The ligands have been diluted 10-fold and this is also the resolution limit of these tests.

[1] = tested on: E. coli strain UTI89 in the bladder of C3H/HeN mice; assay: In vivo inhibition in the murine cystitis model (instillation with UTI89)
Procedure: In vivo inhibition was evaluated by instilling 1-4 together with the UTI89 strain via a catheter in the bladder of C3H/HeN mice. […] A group of ten animals was used for each concentration of antagonists. […] The animals were sacrificed at a 6 h post infection time.
A murine model of urinary tract infection was used to test the ability of the compounds to inhibit the colonization of UTI89 in the bladder [Hung C. S.; Dodson, K. W., Hultgren S. J. Nat. Protoc. 2009, 4, 1230-1243 and Wellens A.; Garofalo C.; Nguyen H.; Van Gerven N.; Slättegård R.; Hernalsteens, J.-P.; Wyns, L.; Oscarson, S.; De Greve H.; Hultgren S. J.; Bouckaert, J. PLoS ONE 2008, 3, e2040]. The solution with high concentration of compounds was added to the resuspension of UTI89 before given to the mice. The eight-week old Female C3H/HeN mice (Harlan, Horst, The Netherlands) were anesthetized and infected via transurethral catheterization of 10^7 CFU UTI89 in solution in PBS, or in PBS with the compound in the mentioned concentration. The mice were sacrificed at 24 hours post infection and the bladders were harvested, homogenized and resuspended in PBS. The serial dilutions were spot on LB medium agar plates. The bacterial load was determined by counting the CFU recovered from the bladder. The animal experiments were approved by the Ethical Committer for Animal Experiments of Vrije Universiteit Brussel and complied with all relevant national legislation and institutional policies. The Mann-Whitney test was applied for the comparison of the data obtained from the untreated group and inhibition group in GraphPad Prism version 5.1 and two tailed P value were shown (GraphPad software).
A limited number of papers described the in vivo efficiency of anti-adhesive mannosides to treat UTIs.

[2] = tested on: type-1 piliated clinical E. coli isolate UTI89; assay: Haemagglutination inhibition assay (HIA), guinea pig erythrocytes; assay type: cell-based, Escherichia coli; conditions: read-out: Minimal inhibitory concentration (MIC) on haemagglutination
Procedure: Haemagglutination is observed as the red blood cells being held in suspension through the formation of a space-filling cross-linked network with the fimbriated bacteria.
The UIT89 clinical isolate was grown statically 37° C. for 48 hours in LB medium and analysed for haemagglutination of guinea pig red blood cells. Both bacteria and red blood cells (RBCs) were washed 3 times in ice-cold PBS (17 mM K/NaH2PO4, 150 mM NaCl). PBS was used for all dilutions. 96-well round-bottom microtiter plates were used for the dilutions. The titer for agglutination was determined in a 2-fold dilution series in PBS of the bacteria in a volume of 25 μL. Well 1 is a negative control without bacteria but 25 μL PBS. 25 μL PBS and 50 μL 5% RBCs were added to a final 100 μL volume. Upon 1 hour at 4° C., the titer was determined as the lowest concentration of bacteria that led to haemagglutination.
A bacterial concentration of twice the determined haemagglutination titer was kept constant in the haemagglutination inhibition assays. First, a 2-fold dilution series of the inhibitory compounds was performed in 25 μL PBS. Instead, in well 1 only 25 μL PBS was added as a negative control. 25 μL of the bacterial solution and 50 μl of 5% red blood cells were added to reach a final volume of 100 μL.

[3] = target: T1, monovalent lectin domain of FimH (Escherichia coli, UniProt P08191); assay type: binding; conditions: for Kd / Molar ratio n meas / ΔG° / ΔH° / ΔS°: direct titration; for Kd: read-out: Kd
T1 construct: with the monovalent lectin domain of FimH were measured using isothermal calorimetry (ITC)

UTI89 E. coli = assay: Inhibition of haemagglutination (Example 19); assay type: cell-based, Escherichia coli; conditions: two-fold dilution from 1 mM
Procedure: Interaction of E. coli FimH adhesins with the glycocalyx of guinea pig erythrocytes forms a cross-linked network into the wells. Glycoconjugates added in a two-fold dilution series prevents the agglutination reaction. The inhibition titer is defined as the lowest concentration of the glycoconjugate at which haemagglutination is still inhibited. UTI89 E. coli were grown statically overnight in LB at 37° C., washed three times in ice-cold phosphate-buffered saline and resolubilized. A two-fold dilution of glycoconjugates was prepared in 25 μL 20 mM HEPES pH 7.4 with 150 mM NaCl, starting from 1 mM as the highest concentration. The bacterial solution (25 μL) was added to the two-fold dilution series of the compound. Finally 50 μl of guinea pig red blood cells, washed in buffer and diluted to 5%, were added to a final 100 μL and left on ice for 30 min. before read-out. Due to serial dilutions, the maximal error is ±one well, or a factor two (FIG. 2).

lectin domain of FimH = target: T2, lectin domain of FimH (Escherichia coli, UniProt P08191); assay: Surface plasmon resonance solution competition assay; assay type: binding; conditions: solution affinity, inhibition of FimH binding to immobilized mannoside, CM5 chip
T2 construct: The lectin domain of FimH was expressed as described previously and purified at pH 4.0; made in house
Procedure: The affinity of the compounds was first evaluated and then measured in a surface plasmon resonance solution competition assay. The lectin domain of FimH was expressed as described previously and purified at pH 4.0 in 50 mM HCOOH on a SPFF (sulfopropyl fast flow) ion exchange column (GE Healthcare). A CM5 sensor chip (Biacore, GE Healthcare) has been coated with a layer of amino-functionalized monovalent heptyl mannoside to 60 RU (response units) and the kinetics of FimH binding to the sensor chip has been determined. All data collection have been performed in HBS buffer complemented with 3 mM EDTA and 0.01% Tween20. Regeneration was done with a single 10 s injection of 100 mM NaOH in water.
The solution affinity provided by the Biacore software uses the equation (B−A−Kd)/2+(0.25*(A+B+Kd)^2−A*B)^0.5, with B presenting the uninhibited concentration of FimH, and A the variable compound concentration.

[4] = tested on: AIEC strain LF82 adhesion to T84 intestinal epithelial cells; assay: Adhesion assay on T84 cells with thiazolylaminomannosides (Example 22.3); assay type: cell-based, Escherichia coli
Procedure: T84 Intestinal Epithelial cells (overexpressing the receptor CEACAM6) were beforehand incubated for 1 h with the synthetic thiazolylaminomannosides 6-20 (examples 3-17) at different concentrations. Each compound was tested four times at concentrations of 0.1, 1, 10 and 100 μM.
The cells were then infected in the presence of inhibitory compounds by the AIEC strain of reference LF82 for 3 hours at a multiplicity of infection of 10 bacteria to a cell. After 3 h of incubation, the monolayer was washed and the number of AIEC bacteria associated with cells was counted. The level of adhesion of AIEC LF82 strain in the presence of inhibitors (residual adhesion) was expressed relatively to the level of adherence in the absence of any treatment (considered 100%) (FIG. 10).

[5] = tested on: AIEC LF82 strain adhesion to T84 intestinal epithelial cells; assay: Adhesion assay on T84 cells, cells incubated 1 h with mannoside prior infection (Example 21.1); assay type: cell-based, Escherichia coli
Procedure: E. coli strain LF82 was isolated from a chronic ileal lesion of a patient with Crohn's disease (CD). Bacteria were grown routinely in Luria-Bertani (LB) broth overnight at 37° C. Intestinal epithelial cells T84 derived from colonic adenocarcinoma were maintained in an atmosphere containing 5% CO2 at 37° C. in DMEM/F12 (50/50) medium supplemented with 10% (v/v) heat-inactivated fetal calf serum (FCS), 1% L-glutamine, 100 000 U·l^−1 penicillin, 100 mg·l^−1 streptomycin, 25 μg·l^−1 amphotericin B.
T84 cells were seeded in 48-well tissue culture plates with 1.5×10^5 cells per well and grown for 48 h. Cells were incubated 1 h prior infection with each mannoside at a final concentration of 100; 10; 1 or 0.1 μM in complete medium without antibiotics, containing heat inactivated fetal calf serum (FCS) and were next infected with AIEC LF82 strain at a multiplicity of infection (MOI) of 10 bacteria per cell. After a 3 h incubation period at 37° C., the monolayers were washed in phosphate-buffered saline (PBS; pH 7.2). The epithelial cells were then lysed with 1% Triton X-100 in deionized water. Samples were diluted and plated onto Luria Bertani agar plates to determine the number of cfu recovered from the lysed monolayers.
Results were expressed in percentage of residual adhesion, considering adhesion level of AIEC LF82 without mannoside treatment as 100%.

[6] = tested on: primary human peripheral venous blood monocyte-derived macrophages; assay: Macrophage-mediated phagocytosis of aged PMN cells; assay type: cell-based; conditions: 500 nM
Excerpt: To estimate the influence of mannose-based inhibitors on possible inhibition of phagocytosis we used primary human peripheral venous blood monocyte-derived macrophages and estimated their ability to phagocyte autologous and allogenic human blood-derived PMN cells, as described by us previous (Bilyy, R. O. et al. (2012) J Biol Chem 287, 496-503).
Primary human PMN and MoMa from healthy volunteers were used. Monocytes were isolated from peripheral blood by LymphoPrep® gradient according to manufacture's recommendations for isolation of PBMC fraction. Plastic-attached cells of PBMC fraction were then cultured for 7 days in the presence of GM-CSF (100 U/ml) and autologous serum (added at days 1, 3 and 5) to generate MoMa. After 7 days of differentiation, the MoMa population was tested. They typically contain >95% CD11b+ cells, >90% CD14+ cells and >85% CD89+ cells. Phagocytosis was assessed by pre-incubation of PMN (freshly isolated or aged for 24 h) with mannose-based inhibitor for 30 min at 37° C. at Ringer buffer. Cells were thoroughly washed three times with Ringer solution and incubated with human MoMa for 2 hours. Uningested PMN were analyzed by flow cytometry (for this reason cells were pre-stained with CFSE (Rodel, F. et al. (2005) Strahlentherapie and Onkologie: Organ der Deutschen Rontgengesellschaft . . . [et al] 181, 456-462)) or in the hemocytometric chamber using Zeiss AxioImager A1 microscope. The percentage of prey cells that had been bound to or taken up by MoMa (% of phagocytosis) was calculated.

[7] = excluding spiky heat signals (2)

T1 sequence (P08191 22-179): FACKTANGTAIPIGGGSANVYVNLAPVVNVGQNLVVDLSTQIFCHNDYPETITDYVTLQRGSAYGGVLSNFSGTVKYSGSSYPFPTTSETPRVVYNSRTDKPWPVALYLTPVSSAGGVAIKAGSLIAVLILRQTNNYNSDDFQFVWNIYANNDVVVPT
T2 sequence (P08191 22-179): as above

Compound: OCC1OC(OCCCCCCCOCc2cn(CCOCCOCCOCc3cn(CC4OC5OC6C(CO)OC(OC7C(CO)OC(OC8C(CO)OC(OC9C(CO)OC(OC%10C(CO)OC(OC%11C(CO)OC(OC4C(O)C5O)C(O)C%11O)C(O)C%10O)C(O)C9O)C(O)C8O)C(O)C7O)C(O)C6O)nn3)nn2)C(O)C(O)C1O (stereo not shown) [Compound 3]
- MIC, anti-adhesive potency on bladder cell line 5637 (bladder cell line 5637): >400 µM
- Inhibition efficiency at decreased concentration ([1]; 0.1 mM): important drop in the inhibition efficiency
- Reduction of the level of infection ([1]; instillation of 1 mM with UTI89): 10 fold
- MIC ([2]; UTI89 1.2 10^9 CFU/ml): 200 µM (≈ 341 µg/mL)
- MIC ([2]; UTI89 1.4 10^8 CFU/ml): 50 µM (≈ 85.3 µg/mL)
- MIC ([2]; UTI89 7 10^7 CFU/ml): 31 µM (≈ 52.9 µg/mL)
- Affinity of FimH for the ligand (in words) ([3]; ITC): micromolar range
- Kd ([3]; data processed to exclude spiky heat signals (2)): 1.95 µM
- Kd ([3]; data processed to include the whole binding event (1)): 4.57 µM
- Molar ratio n meas [3, 7]: 0.57
- ΔG° [3, 7]: -32.2 kJ/mol
- ΔH° [3, 7]: -20.1 kJ/mol
- ΔS° [3, 7]: 9.9 cal/mol/deg
- Molar ratio n meas ([3]; whole binding event (1)): 0.45
- ΔG° ([3]; whole binding event (1)): -30.1 kJ/mol
- ΔH° ([3]; whole binding event (1)): -41.8 kJ/mol
- ΔS° ([3]; whole binding event (1)): −9.6 cal/mol/deg

Compound: COc1ccn([C@H]2OC(CO)[C@@H](O)C(O)C2O)c(=S)n1 (stereo partly drawn) [NM30, 1-(2,3,4,6-tetrahydroxy-α-D-mannopyranosyl)-4-methoxypyrimidine-2(1H)-(thi)one]
- Inhibitory potency in haemagglutination (FIG. 2) (UTI89 E. coli): non-effectiveness
- Kd (lectin domain of FimH): 0.92 µM

Compound: Nc1ccn([C@H]2OC(CO)[C@@H](O)C(O)C2O)c(=S)n1 (stereo partly drawn) [NM34, 4-amino-1-(2,3,4,6-tetrahydroxy-α-D-mannopyranosyl)pyrimidine-2(1H)-(thi)one]
- Inhibitory potency in haemagglutination (FIG. 2) (UTI89 E. coli): non-effectiveness
- Kd (lectin domain of FimH): 2.37 µM

Compound: O=C[C@@H](O)[C@@H](O)[C@H](O)[C@H](O)CO [mannose, reference compound]
- Concentration necessary to achieve a similar percentage of residual adhesion (decrease greater than 95%) [4]: 100 mM
- Decrease of adherence to intestinal epithelial cells ([4]; 100 μM): about 25%
- Concentration reaching around 75% of binding inhibition (25% line) [5]: 50000 µM

Compound: CO[C@H]1O[C@H](CO)[C@@H](O)[C@H](O)[C@@H]1O [αMM, α-D-methyl mannoside]
- Phagocytosis rate [6]: significantly decreased phagocytosis rate
